Measurements taken from patent publication US11479546B2, “Antimalarial hexahydropyrimidine analogues” (UCB Biopharma SRL, priority 2018, dated 2022).

test system: Plasmodium falciparum 3D7; assay: P. falciparum 3D7 asexual blood stage assay, Assay Procedure Version 2 (SYBR green readout); assay type: cell-based; settings: Plasmodium falciparum, 3D7, Erythrocyte, 72 h, Version 2 of the assay procedure (asterisk *); 72 h incubation in infected erythrocytes; 50,000 nM to 15 nM
Method in brief: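 Parasite growth read as DNA fluorescence (SYBR green lysis overnight, ex 485/em 528 nm) after 72 h drug exposure of 3D7-infected erythrocytes at 0.5% parasitaemia, 5% haematocrit, 37 °C under 1% O2/3% CO2. Compounds tested 15–50,000 nM final, 0.5% DMSO; normalised to mefloquine (100%) and DMSO (0%), biphasic two-site EC50 fitting.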

SMILES | IC50 [nM]
C[C@@]1(c2cccc(Nc3ccc(C(F)F)nc3C#N)c2Cl)CC(=O)N(C2CCOCC2)C(=N)N1 [Example 100, 3-{2-Chloro-3-[(4S)-2-imino-4-methyl-6-oxo-1-(tetrahydro-pyran-4-yl)hexahydropyrimidin-4-yl]anilino}-6-(difluoro-methyl)pyridine-2-carbonitrile] | 347
C[C@@]1(c2cccc(Nc3ccc(C4(C#N)CCC4)nc3)c2Cl)CC(=O)N(C2CCOCC2)C(=N)N1 [Example 103, 1-(5-{2-Chloro-3-[(4S)-2-imino-4-methyl-6-oxo-1-(tetrahydro-pyran-4-yl)hexahydropyrimidin-4-yl]anilino}pyridin-2-yl)-cyclobutanecarbonitrile] | 551
CC(C)(C)c1ccc(Nc2cccc([C@]3(C)CC(=O)N(C4CCOCC4)C(=N)N3)c2Cl)cn1 [Example 105, (6S)-6-{3-[(6-tert-Butylpyridin-3-yl)amino]-2-chlorophenyl}-2-imino-6-methyl-3-(tetrahydro-pyran-4-yl)hexahydropyrimidin-4-one] | 318
C[C@@]1(c2cccc(Nc3ccc(C4CCC4)nc3)c2Cl)CC(=O)N(C2CCOCC2)C(=N)N1 [Example 106, (6S)-6-{2-Chloro-3-[(6-cyclo-butylpyridin-3-yl)amino]-phenyl}-2-imino-6-methyl-3-(tetrahydropyran-4-yl)-hexahydropyrimidin-4-one] | 374
CC(C)(C)c1cnc(Nc2cccc([C@]3(C)CC(=O)N(C4CCOCC4)C(=N)N3)c2Cl)cn1 [Example 107, (6S)-6-{3-[(5-tert-Butylpyrazin-2-yl)amino]-2-chlorophenyl}-2-imino-6-methyl-3-(tetrahydro-pyran-4-yl)hexahydropyrimidin-4-one] | 863
C[C@@]1(c2cccc(Nc3ccn4ccnc4c3)c2Cl)CC(=O)N(C2CCOCC2)C(=N)N1 [Example 108, (6S)-6-[2-Chloro-3-(imidazo-[1,2-a]pyridin-7-ylamino)-phenyl]-2-imino-6-methyl-3-(tetrahydropyran-4-yl)-hexahydropyrimidin-4-one] | 2040
C[C@@]1(c2cccc(Nc3ccccc3N=S(C)(C)=O)c2Cl)CC(=O)N(C2CCOCC2)C(=N)N1 [Example 109, (6S)-6-[2-Chloro-3-(2-{[dimethyl(oxo)-λ^6-sulfanylidene]amino}anilino)-phenyl]-2-imino-6-methyl-3-(tetrahydropyran-4-yl)-hexahydropyrimidin-4-one] | 814
Cc1cc(Cl)c(Nc2cccc([C@]3(C)CC(=O)N(C4CCOCC4)C(=N)N3)c2Cl)cn1 [Example 110, (6S)-6-{2-Chloro-3-[(4-chloro-6-methylpyridin-3-yl)amino]-phenyl}-2-imino-6-methyl-3-(tetrahydropyran-4-yl)-hexahydropyrimidin-4-one] | 227
CCc1ccc(Nc2cccc([C@]3(C)CC(=O)N(C4CCOCC4)C(=N)N3)c2Cl)cn1 [Example 111, (6S)-6-{2-Chloro-3-[(6-ethyl-pyridin-3-yl)amino]phenyl}-2-imino-6-methyl-3-(tetrahydro-pyran-4-yl)hexahydropyrimidin-4-one] | 248
C[C@@]1(c2cccc(Nc3ccc(OCC(F)(F)F)nc3)c2Cl)CC(=O)N(C2CCOCC2)C(=N)N1 [Example 112, (6S)-6-(2-Chloro-3-{[6-(2,2,2-trifluoroethoxy)pyridin-3-yl]-amino}phenyl)-2-imino-6-methyl-3-(tetrahydropyran-4-yl)hexahydropyrimidin-4-one] | 642
C[C@@]1(c2cccc(Nc3ccc(-n4cncn4)nc3)c2Cl)CC(=O)N(C2CCOCC2)C(=N)N1 [Example 114, (6S)-6-(2-Chloro-3-{[6-(1,2,4-triazol-1-yl)pyridin-3-yl]-amino}phenyl)-2-imino-6-methyl-3-(tetrahydropyran-4-yl)hexahydropyrimidin-4-one] | 519
Cn1ncc2cc(Nc3cccc([C@]4(C)CC(=O)N(C5CCOCC5)C(=N)N4)c3Cl)cnc21 [Example 115, (6S)-6-{2-Chloro-3-[(1-methyl-pyrazolo[3,4-b]pyridin-5-yl)-amino]phenyl}-2-imino-6-methyl-3-(tetrahydropyran-4-yl)hexahydropyrimidin-4-one] | 668
Cn1cnc2cc(Nc3cccc([C@]4(C)CC(=O)N(C5CCOCC5)C(=N)N4)c3Cl)cnc21 [Example 116, (6S)-6-{2-Chloro-3-[(3-methyl-imidazo[4,5-b]pyridin-6-yl)-amino]phenyl}-2-imino-6-methyl-3-(tetrahydropyran-4-yl)hexahydropyrimidin-4-one] | 556
Cn1nnc(-c2ccc(Nc3cccc([C@]4(C)CC(=O)N(C5CCOCC5)C(=N)N4)c3Cl)cn2)n1 [Example 117, (6S)-6-(2-Chloro-3-{[6-(2-methyltetrazol-5-yl)pyridin-3-yl]amino}phenyl)-2-imino-6-methyl-3-(tetrahydropyran-4-yl)hexahydropyrimidin-4-one] | 707

More lines, now with the values ahead:

IC50 [nM] | SMILES
216 | C[C@@]1(c2cccc(Nc3cccnc3OC(F)F)c2Cl)CC(=O)N(C2CCOCC2)C(=N)N1 [Example 97, (6S)-6-(2-Chloro-3-{[2-(difluoromethoxy)pyridin-3-yl]-amino}phenyl)-2-imino-6-methyl-3-(tetrahydropyran-4-yl)hexahydropyrimidin-4-one]
224 | C[C@@]1(c2cccc(Nc3cc4ccccc4nc3OC(F)F)c2Cl)CC(=O)N(C2CCOCC2)C(=N)N1 [Example 98, (6S)-6-(2-Chloro-3-{[2-(difluoromethoxy)quinolin-3-yl]amino}phenyl)-2-imino-6-methyl-3-(tetrahydropyran-4-yl)hexahydropyrimidin-4-one]
66 | C[C@@]1(c2cccc(Nc3ccc(C4CC4)nc3)c2Cl)CC(=O)N(C2CCOCC2)C(=N)N1 [Example 99, (6S)-6-{2-Chloro-3-[(6-cyclo-propylpyridin-3-yl)amino]-phenyl}-2-imino-6-methyl-3-(tetrahydropyran-4-yl)-hexahydropyrimidin-4-one]
97 | C[C@@]1(c2cccc(Nc3nccnc3OC(F)F)c2Cl)CC(=O)N(C2CCOCC2)C(=N)N1 [Example 101, (6S)-6-(2-Chloro-3-{[3-(difluoromethoxy)pyrazin-2-yl]-amino}phenyl)-2-imino-6-methyl-3-(tetrahydropyran-4-yl)hexahydropyrimidin-4-one]
193 | C[C@@]1(c2cccc(Nc3ncccc3OC(F)F)c2Cl)CC(=O)N(C2CCOCC2)C(=N)N1 [Example 102, (6S)-6-(2-Chloro-3-{[3-(difluoromethoxy)pyridin-2-yl]-amino}phenyl)-2-imino-6-methyl-3-(tetrahydropyran-4-yl)hexahydropyrimidin-4-one]
131 | C[C@@]1(c2cccc(Nc3ccc(F)cc3S(C)(=O)=O)c2Cl)CC(=O)N(C2CCOCC2)C(=N)N1 [Example 104, (6S)-6-{2-Chloro-3-[4-fluoro-2-(methylsulfonyl)anilino]-phenyl}-2-imino-6-methyl-3-(tetrahydropyran-4-yl)-hexahydropyrimidin-4-one]
225 | C[C@@]1(c2cccc(Nc3ccc(N4CCC4)nc3)c2Cl)CC(=O)N(C2CCOCC2)C(=N)N1 [Example 113, (6S)-6-(3-{[6-(Azetidin-1-yl)-pyridin-3-yl]amino}-2-chloro-phenyl)-2-imino-6-methyl-3-(tetrahydropyran-4-yl)-hexahydropyrimidin-4-one]
